From patent US9532994B2, “Agents and methods for enhancing bone formation by oxysterols in combination with bone morphogenic proteins” (THE REGENTS OF THE UNIVERSITY OF CALIFORNIA, priority 2003, dated 2017)

Assays:
[1] = system: M2-10B4 mouse marrow stromal cell line; assay: Matrix mineralization in M2 cells (von Kossa staining, 45Ca incorporation assay); assay type: cell-based; details: 0.5-10 μM, as many as 14 days, data not shown
Procedure: Cells: M2-10B4 mouse marrow stromal cell line obtained from American Type Culture Collection (ATCC, Rockville, Md., U.S.A.) was derived from bone marrow stromal cells of a (C57BL/6J×C3H/HeJ) F1 mouse, and support human and murine myelopoiesis in long-term cultures (as per ATCC) and have the ability to differentiate into osteoblastic and adipocytic cells. Unless specified, these cells were cultured in RPMI 1640 containing 10% heat-inactivated FBS, and supplemented with 1 mM sodium pyruvate, 100 U/ml penicillin, and 100 […] (all from Irvine Scientific).
Von Kossa and oil red O staining—Matrix mineralization in cell monolayers was detected by silver nitrate staining as previously described. Oil red O staining for detection of adipocytes was performed as previously described.
^45Ca incorporation assay—Matrix mineralization in cell monolayers was quantified using the ^45Ca incorporation assay as previously described.
M2 cells at confluence were treated in osteogenic medium with control vehicle or 5 μM oxysterols, alone or in combination as indicated. After 14 days, mineralization was identified by a von Kossa staining, which appears black. FIG. 3C is a depiction of von Kossa staining of M2 cells exposed to various conditions.
M2 cells were treated with control vehicle (C) or a combination of 22R and 20S oxysterols at increasing concentrations. After 14 days, matrix mineralization in cultures was quantified using a ^45Ca incorporation assay. […] FIG. 3D is a bar graph depicting the effect of a combination of oxysterols at various doses on calcium incorporation in M2 cells.
Next, a combination of 22R and 20S oxysterols (RS, 2.5 μM each) were added in the presence or absence of SC as indicated. After 3 days, ALP activity was measured as described earlier. […] (B) M2 cells were treated as described in (A) and after 10 days matrix mineralization in cultures was quantified by a ^45Ca incorporation assay as described earlier. Results from a representative of three experiments are shown, reported as the mean±SD of quadruplicate determinations, normalized to protein concentration. (C) M2 cells were pretreated with 20 μM SC for 4 hours, followed by the addition of RS in the presence or absence of SC as described above. After 8 days, total RNA was isolated and analyzed for osteocalcin (Osc) and 18S rRNA expression by Northern blotting as previously described. Data from densitometric analysis of the Northern blot is shown in (D) as the average of duplicate samples, normalized to 18S rRNA. (E) M2 cells at confluence were pretreated for 2 hours with control vehicle (C), or PLA2 inhibitors ACA (25 μM) and MCOCF3 (MC, 20 μM), in osteogenic medium. Next, a combination of 22R and 20S oxysterols (RS, 2.5 μM) was added in the presence or absence of the inhibitors as indicated. After 3 days, ALP activity was measured as previously described. Data from a representative of three experiments are shown, reported as the mean±SD of quadruplicate determinations, normalized to protein concentration (p<0.01 for RS vs. RS+ACA and RS+MC). (F) M2 cells were treated as described in (E). After 10 days, matrix mineralization in cultures was quantified using a ^45Ca incorporation assay as previously described. Results from a representative of three experiments are shown, reported as the mean of quadruplicate determinations±SD, normalized to protein concentration (p<0.01 for RS vs. RS+ACA and RS+MC).
(A) M2 cells at confluence were pretreated for four hours with RPMI containing 1% FBS, followed by treatment with control vehicle or 5 μM 20S oxysterol for 1, 4, or 8 hours. Next total cell extracts were prepared and analyzed for levels of native or phosphorylated ERK (pERK) using specific antibodies as previously described.

lipoprotein lipase (LPL) = assay: Northern blotting for lipoprotein lipase in M2 cells; assay type: cell-based, mouse; details: 10 μM Tro with 10 μM 20S, 10 days (FIGS. 7C and D)
Procedure: (§1) RNA isolation and Northern blot analysis - Following treatment of cells under appropriate experimental conditions, total RNA was isolated using the RNA isolation kit from Stratagene (La Jolla, Calif., U.S.A.). Total RNA ([…]) was run on a 1% agarose/formaldehyde gel and transferred to Duralon-UV membranes (Strategene, CA, U.S.A.) and cross-linked with UV light. The membranes were hybridized overnight at 60° C. with ^32P-labeled mouse osteocalcin cDNA probe, mouse lipoprotein lipase (LPL), mouse adipocyte protein 2 (aP2) PCR-generated probes, human 28S or 18S rRNA probes obtained from Geneka Biotechnology (Montreal, Quebec, Canada) and Maxim Biotech (San Francisco, CA, U.S.A.), respectively. […] The extent of gene induction was determined by densitometry.
(§2) Test 2: (A) M2 cells at confluence were treated in RPMI containing 10% FBS with control vehicle or 10 μM troglitazone (Tro) in the absence or presence of 10 μM 20S or 22S oxysterols. After 10 days, adipocytes were visualized by oil Red O staining and quantified by light microscopy, shown in (B). […] After 10 days, total RNA was isolated and analyzed for lipoprotein lipase (LPL), adipocyte P2 gene (aP2) or 18S rRNA expression by Northern blotting as described (Ref). […]

adipocyte P2 gene (aP2) = assay: Northern blotting for adipocyte P2 gene in M2 cells; assay type: cell-based, mouse; details: 10 μM Tro with 10 μM 20S, 10 days (FIGS. 7C and D)
Procedure: as §1, §2

| Compound | induction of mineralization, individual oxysterols [1] | expression of lipoprotein lipase (LPL) (lipoprotein lipase (LPL)) | expression of adipocyte P2 gene (aP2) (adipocyte P2 gene (aP2)) |
| --- | --- | --- | --- |
| CC(C)CC[C@H](O)[C@@H](C)[C@H]1CC[C@H]2[C@@H]3CC=C4C[C@@H](O)CC[C@]4(C)[C@H]3CC[C@]12C [22S, 22(S)-hydroxycholesterol] | unable to induce |  |  |
| CC(C)CC[C@@H](O)[C@@H](C)[C@H]1CC[C@H]2[C@@H]3CC=C4C[C@@H](O)CC[C@]4(C)[C@H]3CC[C@]12C [22R, 22(R)-hydroxycholesterol] | unable to induce |  |  |
| CC(C)CCC[C@](C)(O)[C@H]1CC[C@H]2[C@@H]3CC=C4C[C@@H](O)CC[C@]4(C)[C@H]3CC[C@@]21C [20S, 20(S)-hydroxycholesterol] | unable to induce | inhibition of the expression | inhibition of the expression |
